Assay type in all cases: functional, cell-based
The test system of one assay is HCC827. Put plainly: Antiproliferative activity against human HCC827 cells assessed as reduction in cell viability after 72 hrs by MTT assay. The note with it: HCC827, 72 h. In general terms: Tetrazolium assays rely on reduction of a dye to a coloured formazan, in cell work by metabolically active cells.
The subject of the next assay is NCI-H1975. The experiment in a line: Antiproliferative activity against human NCI-H1975 cells assessed as reduction in cell viability after 72 hrs by MTT assay. The note with it: NCI-H1975, 72 h.
For a further assay, the system named is NCI-H460. The experiment in a line: Antiproliferative activity against human NCI-H460 cells assessed as reduction in cell viability after 72 hrs by MTT assay. The note with it: NCI-H460, 72 h.

As usually defined, the IC50 is the point on the concentration scale where inhibition reaches its midpoint. For the molecule `C=CCc1ccc(OCCCCOC(C)=O)c(-c2cc(CC=C)cc(CN3CCC(N)CC3)c2O)c1`, the IC50 in the assay with HCC827, in the assay with NCI-H1975 and with NCI-H460 was more than 20 µM each time.
`C=CCc1ccc(O)c(-c2cc(CC=C)cc(CN3CCC(NC(=O)CCCN)CC3)c2O)c1`: the IC50 with HCC827, in the assay on NCI-H1975 and in the assay on NCI-H460 was more than 20 µM throughout.
For the molecule `C=CCc1ccc(O)c(-c2cc(CC=C)cc(CN3CCC(NC(=O)CCCCCN)CC3)c2O)c1`, the IC50 in the assay with HCC827, in the assay on NCI-H1975 and with NCI-H460 was more than 20 µM throughout.
Take `C=CCc1ccc(O)c(-c2cc(CC=C)cc(CN3CCC(NC(=O)[C@H](N)CO)CC3)c2O)c1`: the IC50 worked out at 9.05 µM in the assay on HCC827, 10.3 µM in the assay with NCI-H1975 and 8.32 µM with NCI-H460.
Take `C=CCc1ccc(O)c(-c2cc(CC=C)cc(CN3CC[C@H](O)C3)c2O)c1`: the IC50 in the assay with HCC827, in the assay on NCI-H1975 and in the assay on NCI-H460 was more than 20 µM throughout.
For the molecule `C=CCc1ccc(O)c(-c2cc(CC=C)cc(CN3CCC(NC(=O)[C@@H](N)Cc4ccccc4)CC3)c2O)c1`, the IC50 in the assay with HCC827 was 10.9 µM; with NCI-H1975, 11.3 µM; in the assay with NCI-H460, 12.5 µM.
As to `C=CCc1ccc(O)c(-c2cc(CC=C)cc(CN3CCC(NC(=O)[C@@H]4CCCN4)CC3)c2O)c1`, the IC50 with HCC827, in the assay with NCI-H1975 and with NCI-H460 was more than 20 µM each time.
For `C=CCc1ccc(OC)c(-c2cc(CC=C)cc(CN3CCC(N)CC3)c2O)c1`, the IC50 is 3.44 µM with HCC827, 4.1 µM in the assay on NCI-H1975 and 4.27 µM in the assay on NCI-H460.
The like results for `C=CCc1ccc(OCCCC)c(-c2cc(CC=C)cc(CN3CCC(N)CC3)c2O)c1` were, in that order, 9.45 µM, 10.4 µM and 8.76 µM.
The like results for `C=CCc1ccc(O)c(-c2cc(CC=C)cc(Cn3ccc(N)n3)c2O)c1` were, in that order, 16.2 µM, more than 20 µM and more than 20 µM.
On to `C=CCc1ccc(O)c(-c2cc(CC=C)cc(CN3CCC(NC(=O)[C@H](N)CCSC)CC3)c2O)c1`, for which the 50% inhibitory concentration (IC50) with HCC827, in the assay on NCI-H1975 and in the assay on NCI-H460 was more than 20 µM each time.
For `C=CCc1ccc(O)c(-c2cc(CC=C)cc(CN3CCC(NC(=O)[C@H]4CCCN4)CC3)c2O)c1`, the IC50 in the assay on HCC827, in the assay on NCI-H1975 and in the assay on NCI-H460 was more than 20 µM throughout.
Regarding `C=CCc1ccc(OC(C)C)c(-c2cc(CC=C)cc(CN3CCC(N)CC3)c2OC(C)C)c1`, the IC50 in the assay with HCC827 amounted to 2.05 µM; with NCI-H1975, 4.14 µM; in the assay on NCI-H460 it was 2.87 µM.
As to `C=CCc1ccc(OCCCCCOC(C)=O)c(-c2cc(CC=C)cc(CN3CCC(N)CC3)c2OCCCCCOC(C)=O)c1`, the IC50 in the assay on HCC827, in the assay on NCI-H1975 and in the assay with NCI-H460 was more than 20 µM throughout.
Regarding `C=CCc1ccc(O)c(-c2cc(CC=C)cc(CN3CCC[C@@H]3CO)c2O)c1`, the half-maximal inhibitory concentration (IC50) in the assay with HCC827, in the assay with NCI-H1975 and in the assay with NCI-H460 was more than 20 µM each time.
Take `C=CCc1ccc(OCCCCO)c(-c2cc(CC=C)cc(CN3CCC(N)CC3)c2O)c1`: the IC50 in the assay with HCC827 amounted to 7.39 µM; in the assay with NCI-H1975, 7.43 µM; with NCI-H460 it was 8.78 µM.
Taken in the same sequence, the figures for `C=CCc1ccc(OCC2CCCO2)c(-c2cc(CC=C)cc(CN3CCC(N)CC3)c2O)c1` (stereo unspecified) were 2.44 µM, 5.72 µM and 2.76 µM.
With `C=CCc1ccc(O)c(-c2cc(CC=C)cc(CN3CC[C@H](N)C3)c2O)c1`, the IC50 in the assay on HCC827, in the assay on NCI-H1975 and in the assay with NCI-H460 was more than 20 µM throughout.
With `C=CCc1ccc(O)c(-c2cc(CC=C)cc(CCN3CCC(N)CC3)c2O)c1`, the IC50 in the assay on HCC827, in the assay on NCI-H1975 and with NCI-H460 was more than 20 µM throughout.
With `C=CCc1ccc(OCCO)c(-c2cc(CC=C)cc(CN3CCC(N)CC3)c2O)c1`, the half-inhibitory concentration (IC50) came to 4.34 µM with HCC827, 6.84 µM in the assay on NCI-H1975 and 6.16 µM with NCI-H460.
In the case of `C=CCc1ccc(O)c(-c2cc(CC=C)cc(Cn3cc(N)cn3)c2O)c1`, the half-inhibitory concentration (IC50) is 15.4 µM with HCC827, more than 20 µM in the assay on NCI-H1975 and more than 20 µM in the assay on NCI-H460.
Consider `C=CCc1ccc(OCCCCCO)c(-c2cc(CC=C)cc(CN3CCC(N)CC3)c2O)c1`, for which the 50% inhibitory concentration (IC50) worked out at 8.71 µM with HCC827, 9.65 µM in the assay on NCI-H1975 and 10.2 µM in the assay on NCI-H460.
Taken in the same sequence, the figures for `C=CCc1ccc(O)c(-c2cc(CC=C)cc(CN3CCC(NC(=O)[C@@H](N)c4ccccc4)CC3)c2O)c1` were 12.3 µM, 15.9 µM and 15.8 µM.
The like results for `C=CCc1ccc(OCCC)c(-c2cc(CC=C)cc(CN3CCC(N)CC3)c2O)c1` were, in that order, 5.27 µM, 4.97 µM and 4.85 µM.
For the molecule `C=CCc1ccc(OCCCO)c(-c2cc(CC=C)cc(CN3CCC(N)CC3)c2O)c1`, the IC50 in the assay with HCC827 stood at 6.29 µM; in the assay with NCI-H1975, 6.98 µM; with NCI-H460, 6.66 µM.
As for `C=CCc1ccc(O)c(-c2cc(CC=C)cc(CCCN3CCC(N)CC3)c2O)c1`, the 50% inhibitory concentration (IC50) in the assay with HCC827, in the assay with NCI-H1975 and in the assay with NCI-H460 was more than 20 µM each time.
In the case of `C#CCOc1ccc(CC=C)cc1-c1cc(CC=C)cc(CN2CCC(N)CC2)c1O`, the IC50 in the assay on HCC827, with NCI-H1975 and with NCI-H460 was more than 20 µM in each case.
In the case of `C=CCc1ccc(O)c(-c2cc(CC=C)cc(CN3CCC(NC(=O)[C@@H](N)CCSC)CC3)c2O)c1`, the IC50 in the assay on HCC827, in the assay with NCI-H1975 and in the assay with NCI-H460 was more than 20 µM each time.
With `C=CCc1ccc(O)c(-c2cc(CC=C)cc(CN3CCC(NC(=O)[C@H](N)CC(C)C)CC3)c2O)c1`, the IC50 in the assay with HCC827, in the assay on NCI-H1975 and in the assay on NCI-H460 was more than 20 µM throughout.
On to `C=CCc1ccc(O)c(-c2cc(CC=C)cc(CN3CCC(NC(=O)[C@@H](C)N)CC3)c2O)c1`, for which the IC50 in the assay with HCC827, in the assay with NCI-H1975 and in the assay with NCI-H460 was more than 20 µM throughout.
Take `C=CCc1ccc(O)c(-c2cc(CC=C)cc(CN3CCC(NC(=O)[C@H](N)Cc4ccccc4)CC3)c2O)c1`: the IC50 came out at 4.74 µM with HCC827, 4.08 µM with NCI-H1975 and 4.32 µM in the assay on NCI-H460.
In the case of `C=CCc1ccc(OCCCCCC)c(-c2cc(CC=C)cc(CN3CCC(N)CC3)c2O)c1`, the half-maximal inhibitory concentration (IC50) is 12.5 µM in the assay with HCC827, 12.3 µM in the assay with NCI-H1975 and 9.46 µM with NCI-H460.
In the case of `C=CCc1ccc(O)c(-c2cc(CC=C)cc(CN3CCC(NC(=O)[C@@H](N)CO)CC3)c2O)c1`, the values for the IC50 in the assay on HCC827, in the assay with NCI-H1975 and with NCI-H460 were 6.24 µM, 7.38 µM and 6.57 µM, respectively.
On to `C=CCc1ccc(OCC)c(-c2cc(CC=C)cc(CN3CCC(N)CC3)c2OCC)c1`, for which the IC50 was 2.12 µM with HCC827, 3.45 µM with NCI-H1975 and 3.64 µM in the assay with NCI-H460.
The like results for `C=CCc1ccc(OC(C)C)c(-c2cc(CC=C)cc(CN3CCC(NC(=O)[C@@H](N)CO)CC3)c2O)c1` were, in that order, 2.85 µM, 5.71 µM and 2.87 µM.
The like results for `C=CCc1ccc(OCC)c(-c2cc(CC=C)cc(CN3CCC(NC(=O)[C@@H](N)CO)CC3)c2O)c1` were, in that order, 5.42 µM, 6.98 µM and 6.15 µM.
As to `C=CCc1ccc(OC(C)C)c(-c2cc(CC=C)cc(CN3CCC(NC(=O)[C@H](N)c4ccccc4)CC3)c2O)c1`, the IC50 in the assay on HCC827 came to 1.56 µM; in the assay on NCI-H1975, 4.21 µM; with NCI-H460, 1.73 µM.
Taken in the same sequence, the figures for `C=CCc1ccc(O)c(-c2cc(CC=C)cc(CN3CCC(NC(=O)[C@H](C)N)CC3)c2O)c1` were more than 20 µM, more than 20 µM and 17.3 µM.
On to `C=CCc1ccc(O)c(-c2cc(CC=C)cc(CN3CCC(NC(=O)[C@H](N)c4ccccc4)CC3)c2O)c1`, for which the IC50 with HCC827 stood at 5.89 µM; in the assay with NCI-H1975, 6.85 µM; in the assay with NCI-H460, 6.43 µM.
The like results for `C=CCCOc1ccc(CC=C)cc1-c1cc(CC=C)cc(CN2CCC(N)CC2)c1O` were, in that order, 4.3 µM, 12.2 µM and 6.12 µM.
As to `C=CCc1ccc(O)c(-c2cc(CC=C)cc(CCCCN3CCC(N)CC3)c2O)c1`, the IC50 with HCC827, in the assay on NCI-H1975 and with NCI-H460 was more than 20 µM in each case.
With `C=CCc1ccc(OC2CCCC2)c(-c2cc(CC=C)cc(CN3CCC(N)CC3)c2O)c1`, the concentration for half-maximal inhibition (IC50) in the assay with HCC827 was 3.51 µM; in the assay with NCI-H1975 it was 6.37 µM; in the assay with NCI-H460, 5.85 µM.
The like results for `C=CCc1ccc(O)c(-c2cc(CC=C)cc(CN3CCC(NC(=O)[C@@H](N)CC(C)C)CC3)c2O)c1` were, in that order, more than 20 µM, more than 20 µM and more than 20 µM.
Take `C=CCc1ccc(O)c(-c2cc(CC=C)cc(CN3CCC(NC(=O)CCN)CC3)c2O)c1`: the IC50 with HCC827, with NCI-H1975 and in the assay on NCI-H460 was more than 20 µM each time.
For `C=CCCCCOc1ccc(CC=C)cc1-c1cc(CC=C)cc(CN2CCC(N)CC2)c1O`, the IC50 came out at 4.48 µM in the assay on HCC827, 14 µM in the assay on NCI-H1975 and 6.88 µM with NCI-H460.
On to `C=CCc1ccc(O)c(-c2cc(CC=C)cc(CN3CCCC3)c2O)c1`, for which the IC50 in the assay on HCC827, with NCI-H1975 and in the assay on NCI-H460 was more than 20 µM in each case.
As to `C=CCc1ccc(OCC)c(-c2cc(CC=C)cc(CN3CCC(NC(=O)[C@H](N)c4ccccc4)CC3)c2O)c1`, the IC50 with HCC827 amounted to 1.23 µM; in the assay with NCI-H1975, 7.31 µM; in the assay on NCI-H460, 1.46 µM.

Values taken from ChEMBL document CHEMBL4732067, “Synthesis and evaluation of new compounds bearing 3-(4-aminopiperidin-1-yl)methyl magnolol scaffold as anticancer agents for the treatment of non-small cell lung cancer via targeting autophagy” (Eur J Med Chem, 2021).
